Results on 2 compounds are retold here after ChEMBL document CHEMBL5154817, “Structure-activity relationship studies on O-alkylamino-tethered salicylamide derivatives with various amino acid linkers as potent anticancer agents” (Eur J Med Chem, 2022).

The source made the active and inactive calls. The calls are words filed in the database; no cut-off is given here. A value given as a limit tells only on which side of the number the result lay.

Data set [1] can be described thus: Toxicity in nude mouse xenografted with human MDA-MB-231 cells assessed as loss of body weight at 7.5 to 10 mg/kg, ip measured daily for 14 days. It counts as organism-based. The note with it: in vivo, 336 h, dose 7.5-10 mg/kg, time 14 day. Background: Xenograft models place foreign cells or tissue in a host animal.
For data set [2], the system named is MDA-MB-231. Kind of data set: Induction of apoptosis in human MDA-MB-231 cells assessed as increase in cleaved PARP level at 1 to 10 uM incubated for 48 hrs by Western blotting analysis. In kind it is functional, cell-based. To be noted: dose 1-10 µM. In general terms: Immunoblotting shows a protein as a band on a membrane.
Data set [3] has as its system MDA-MB-231. Kind of data set: Inhibition of colony formation in human MDA-MB-231 cells incubated for 2 weeks measured by crystal violet staining method. It counts as functional, cell-based. To be noted: dose 0.1-3 µM, DDE = dose-dependent effect.
The test system of data set [4] is T47D. Kind of data set: Inhibition of colony formation in human T47D cells incubated for 2 weeks measured by crystal violet staining method. The note with it: dose 0.5-7.5 µM, DDE = dose-dependent effect. It counts as functional, cell-based.
In data set [5] the test system is MCF7. Briefly: Antiproliferative activity against human MCF7 cells assessed as inhibition of cell growth incubated for 72 hrs by MTT assay. In kind it is functional, cell-based. The note with it: MCF7, 72 h.
For data set [6], the system named is MDA-MB-231. Kind of data set: Induction of apoptosis in human MDA-MB-231 cells assessed as early apoptotic cells at 1 uM incubated for 48 hrs by Annexin V staining based cell analyzer method (reference value: 2.6%). It counts as functional.
Data set [7] concerns MDA-MB-231. Kind of data set: Induction of apoptosis in human MDA-MB-231 cells assessed as increase in cleaved caspase-3 level at 1 to 10 uM incubated for 48 hrs by Western blotting analysis. It counts as functional, cell-based. To be noted: dose 1-10 µM.
Data set [8] has as its system T47D. Kind of data set: Antiproliferative activity against human T47D cells assessed as inhibition of cell growth incubated fro 72 hrs by MTT assay. It counts as functional, cell-based.
The nature of data set [9]: Cytotoxicity against human MCF-10A cells incubated for 72 hrs by MTT assay. It counts as toxicity, cell-based.
The subject of data set [10] is MDA-MB-231. Kind of data set: Induction of apoptosis in human MDA-MB-231 cells assessed as late apoptotic cells at 10 uM incubated for 48 hrs by Annexin V staining based cell analyzer method (reference value: 4.45%). In kind it is functional.
Data set [11] deals with MDA-MB-231. Kind of data set: Induction of apoptosis in human MDA-MB-231 cells assessed as downregulation of Bcl-2 level at 1 to 10 uM incubated for 48 hrs by Western blotting analysis. To be noted: dose 1-10 µM. It counts as functional, cell-based.
Data set [12] has as its system MDA-MB-231. Kind of data set: Induction of apoptosis in human MDA-MB-231 cells assessed as necrotic cells at 10 uM incubated for 48 hrs by Annexin V staining based cell analyzer method (reference value: 0.4%). In kind it is functional.
Data set [13] deals with MCF7. Kind of data set: Inhibition of colony formation in human MCF7 cells incubated for 2 weeks measured by crystal violet staining method. It counts as functional, cell-based. To be noted: dose 1-10 µM, DDE = dose-dependent effect.
Data set [14] concerns MDA-MB-231. Briefly: Induction of apoptosis in human MDA-MB-231 cells assessed as activation of Bax at 1 to 10 uM incubated for 48 hrs by Western blotting analysis. In kind it is functional, cell-based. The note with it: dose 1-10 µM.
Data set [15] relates to MDA-MB-468. Kind of data set: Antiproliferative activity against human MDA-MB-468 cells assessed as inhibition of cell growth incubated for 72 hrs by MTT assay. In kind it is functional, cell-based. To be noted: MDA-MB-468, 72 h.
The test system of data set [16] is MDA-MB-231. Briefly: Antitumor activity against human MDA-MB-231 cells xenografted in nude mouse assessed as reduction in tumor volume at 10 mg/kg, ip measured every other day for 14 days. In kind it is functional. To be noted: MDA-MB-231, 336 h, time 14 day.
Data set [17] deals with MDA-MB-231. Kind of data set: Induction of apoptosis in human MDA-MB-231 cells assessed as early apoptotic cells at 5 uM incubated for 48 hrs by Annexin V staining based cell analyzer method (reference value: 2.6%). It counts as functional.
For data set [18], the system named is MDA-MB-468. Briefly: Inhibition of colony formation in human MDA-MB-468 cells incubated for 2 weeks measured by crystal violet staining method. In kind it is functional, cell-based. The note with it: dose 0.5-7.5 µM, DDE = dose-dependent effect.
For data set [19], the system named is MDA-MB-231. Kind of data set: Induction of apoptosis in human MDA-MB-231 cells assessed as late apoptotic cells at 1 uM incubated for 48 hrs by Annexin V staining based cell analyzer method (reference value: 4.45%). In kind it is functional.
The target in data set [20] is Signal transducer and activator of transcription 3 (Homo sapiens) (UniProt P40763). Kind of data set: Inhibition of STAT3 in human MDA-MB-231 cells assessed as suppression of STAT3 phosphorylation incubated for 24 hrs by Western blotting analysis. The note with it: dose 1-10 µM, DDE = dose-dependent effect. It counts as cell-based.
Data set [21] deals with MDA-MB-231. Briefly: Induction of apoptosis in human MDA-MB-231 cells assessed as viable cells at 1 uM incubated for 48 hrs by Annexin V staining based cell analyzer method (reference value: 92.55%). In kind it is functional. The note with it: read-out: Activity.
Data set [22] deals with MDA-MB-231. Briefly: Induction of apoptosis in human MDA-MB-231 cells assessed as necrotic cells at 1 uM incubated for 48 hrs by Annexin V staining based cell analyzer method (reference value: 0.4%). It counts as functional.
The test system of data set [23] is MDA-MB-231. Briefly: Antiproliferative activity against human MDA-MB-231 cells assessed as inhibition of cell growth incubated for 72 hrs by MTT assay. In kind it is functional, cell-based. To be noted: MDA-MB-231, 72 h. In general terms: Tetrazolium dyes change colour on reduction, which living cells bring about.
Data set [24] deals with MDA-MB-231. Kind of data set: Induction of apoptosis in human MDA-MB-231 cells assessed as necrotic cells at 5 uM incubated for 48 hrs by Annexin V staining based cell analyzer method (reference value: […]). It counts as functional.
For data set [25], the system named is MDA-MB-231. Briefly: Induction of apoptosis in human MDA-MB-231 cells assessed as early apoptotic cells at 10 uM incubated for 48 hrs by Annexin V staining based cell analyzer method (reference value: 2.6%). In kind it is functional.
Data set [26] deals with MDA-MB-231. Kind of data set: Induction of apoptosis in human MDA-MB-231 cells assessed as viable cells at 10 uM incubated for 48 hrs by Annexin V staining based cell analyzer method (reference value: 92.55%). It counts as functional. To be noted: read-out: Activity.
For data set [27], the system named is MDA-MB-231. Kind of data set: Induction of apoptosis in human MDA-MB-231 cells assessed as late apoptotic cells at 5 uM incubated for 48 hrs by Annexin V staining based cell analyzer method (reference value: 4.45%). It counts as functional.
The subject of data set [28] is MDA-MB-231. Kind of data set: Induction of apoptosis in human MDA-MB-231 cells assessed as viable cells at 5 uM incubated for 48 hrs by Annexin V staining based cell analyzer method (reference value: 92.55%). It counts as functional. The note with it: read-out: Activity.

Chain of Signal transducer and activator of transcription 3 (Homo sapiens) (P40763 whole entry): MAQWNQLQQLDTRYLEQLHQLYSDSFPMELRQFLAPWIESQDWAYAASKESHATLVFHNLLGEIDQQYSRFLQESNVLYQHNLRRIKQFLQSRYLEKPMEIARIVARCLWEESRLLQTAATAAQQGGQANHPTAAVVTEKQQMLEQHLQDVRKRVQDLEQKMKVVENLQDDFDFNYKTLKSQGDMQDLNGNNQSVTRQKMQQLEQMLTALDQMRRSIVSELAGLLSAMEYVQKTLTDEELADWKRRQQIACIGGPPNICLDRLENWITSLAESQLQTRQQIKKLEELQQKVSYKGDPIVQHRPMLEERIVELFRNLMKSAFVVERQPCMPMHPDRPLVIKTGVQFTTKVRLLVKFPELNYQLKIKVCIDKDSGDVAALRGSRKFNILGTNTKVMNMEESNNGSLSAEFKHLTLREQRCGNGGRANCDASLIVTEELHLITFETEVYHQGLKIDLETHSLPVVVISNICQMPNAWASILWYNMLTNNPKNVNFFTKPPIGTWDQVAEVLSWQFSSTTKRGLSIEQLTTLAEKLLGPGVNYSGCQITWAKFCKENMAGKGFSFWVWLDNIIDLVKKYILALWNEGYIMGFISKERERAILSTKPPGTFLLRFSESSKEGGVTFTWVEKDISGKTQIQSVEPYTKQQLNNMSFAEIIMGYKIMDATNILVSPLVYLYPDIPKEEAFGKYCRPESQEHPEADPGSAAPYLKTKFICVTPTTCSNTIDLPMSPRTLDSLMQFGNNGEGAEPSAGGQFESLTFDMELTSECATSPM

For the compound `CC(C)[C@H](NC(=O)c1cc(Cl)ccc1OCCNC(=O)OC(C)(C)C)C(=O)Nc1ccc([N+](=O)[O-])cc1Cl`, the Activity entry is “Non-Toxic” in [1]; 2.85% in data set [6]; 35.7% in data set [10]; 1.6% in data set [12]; 9.75% in [17]; 2.6% in data set [19]. The Activity was found to be 0.3% in data set [22], 0.55% in data set [24], 17.85% in [25] and 10.9% in [27]. Also, the outcome in data set [2], in data set [7], in data set [11] and in [14] was Active. Besides, the inhibition result in data set [3], in data set [4], in data set [13], in [18] and in data set [20] was “Dde” each time. In addition, the concentration for half-maximal inhibition (IC50) in [5] was determined as 9050 nM; in data set [8], 8920 nM; in data set [15], 18300 nM; in data set [23], 3380 nM. The same compound showed an IC50 at 72 h in data set [9] above 60000 nM. Moreover, the inhibition in vivo at 10 mg/kg in data set [16] was 55%. In addition, the viability at 1 µM in data set [21] is 94.2%. The viability at 10 µM in data set [26] was determined as 44.9%. The viability at 5 µM in [28] amounted to 78.8%.

As for `CC(C)[C@H](NC(=O)c1cc(Cl)ccc1OCCNC(=O)OC(C)(C)C)C(=O)Nc1ccc2c(c1)S(=O)(=O)C=C2`, the IC50 in [5] was 1520 nM; in data set [8] it was 1590 nM; in data set [15], 2380 nM; in [23], 1530 nM. The compound also registered an IC50 at 72 h in data set [9] of 2600 nM.

By IC50 is commonly meant the midpoint of a concentration-inhibition curve. A word on the inhibition in vivo: it is the relative decrease from the control value, in per cent.
